These results are taken from patent US8063071B2 (GlaxoSmithKline, LLC, priority 2007, dated 2011).

By inhibition is commonly meant the percentage by which the read-out fell short of the control.

Structures can show the parent of a compound that is named as a salt. Where only a bound is given, the exact number is not on record here.

Experiment [1] concerns human monocyte stimulated cytokine production (TNF-α). Kind of experiment: Monocyte assay (LPS-stimulated TNF-α production). In kind it is cell-based. The conditions noted are these: for IC50: 24 h, 200 ng/mL LPS, TNF-α by ELISA; for inhibition at 0.3 µM: read-out: inhibition at 300 nM in the monocyte assay. On the procedure:
Effect of IKK-β inhibition on human monocyte stimulated cytokine production was assessed as follows: Monocytes were isolated from heparinized whole blood by Ficoll gradient, followed by purification of CD14+ cells using MACS magnetic cell separation beads. Isolated monocytes were then adhered to 96-well culture plates at 1×10^6 cells/mL in RPMI 1640 10% FBS (JRH Biosciences, Lenexa Kans.) for 2 h. Test compounds are added to the wells 30 minutes prior to stimulation with a final vehicle concentration of 0.1% DMSO. Monocytes were activated by the addition of 200 ng/mL endotoxin (LPS; E. coli serotype 026:B6)(Sigma, St. Louis, Mo.) and incubated for 24 hrs at 37 C. Cell-free supernates were analyzed by ELISA for TNF-α using Pharmingen matched pair Abs. Viability of the cells was determined by 10% trypan blue exclusion.

For experiment [2], the target named is T1, Recombinant human IKKβ (residues 1-737) (Homo sapiens, UniProt O14920).
T1 construct: Recombinant human IKKβ (residues 1-737); GST (C); made in house
T1 sequence (O14920 1-737): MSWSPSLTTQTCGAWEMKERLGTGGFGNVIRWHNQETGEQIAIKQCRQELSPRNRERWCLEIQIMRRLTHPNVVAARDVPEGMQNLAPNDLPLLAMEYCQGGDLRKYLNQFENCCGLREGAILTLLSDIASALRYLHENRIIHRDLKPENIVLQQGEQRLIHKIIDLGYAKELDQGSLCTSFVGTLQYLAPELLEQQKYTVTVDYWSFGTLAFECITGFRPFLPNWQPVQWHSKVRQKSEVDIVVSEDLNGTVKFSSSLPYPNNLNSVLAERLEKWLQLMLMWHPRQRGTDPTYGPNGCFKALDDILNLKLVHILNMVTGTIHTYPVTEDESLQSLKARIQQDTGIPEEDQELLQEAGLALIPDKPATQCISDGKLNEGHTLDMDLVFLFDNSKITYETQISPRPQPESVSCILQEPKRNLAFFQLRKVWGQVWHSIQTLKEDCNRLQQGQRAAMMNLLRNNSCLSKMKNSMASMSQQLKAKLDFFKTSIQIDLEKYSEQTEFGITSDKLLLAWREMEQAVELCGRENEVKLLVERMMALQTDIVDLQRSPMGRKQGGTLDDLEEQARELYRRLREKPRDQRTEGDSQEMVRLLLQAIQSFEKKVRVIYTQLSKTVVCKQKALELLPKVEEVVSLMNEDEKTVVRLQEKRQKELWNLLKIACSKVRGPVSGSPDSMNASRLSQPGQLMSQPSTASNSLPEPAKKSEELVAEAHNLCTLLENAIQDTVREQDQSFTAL
Kind of experiment: IKK2 assay (TR-FRET). In kind it is biochemical. The conditions noted are these: ATP 1 μM final, read-out: pIC50 against IKK2 (converted). In short, it runs like this:
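Baculovirus-expressed C-terminal GST-tagged IKKβ (0.5-5 nM final) in HEPES pH 7.4, MgCl2, CHAPS, DTT, BSA with 1.7% DMSO; 25 nM GST-IB substrate and 1 μM ATP, 15 min at room temperature. EDTA stop; phospho-Ser32/36 detected by Eu-antibody/APC-anti-GST TR-FRET, 665/620 nm ratio.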
Background: In TR-FRET formats the signal depends on donor and acceptor labels being close together.

Take `CCS(=O)(=O)N1CCC(c2c[nH]c3c(C(N)=O)cc(-c4cccc(CN5CCCCC5)c4)cc23)CC1` [Example 1, 3-[1-(ethylsulfonyl)-4-piperidinyl]-5-[3-(1-piperidinylmethyl)phenyl]-1H-indole-7-carboxamide]: the IC50 is at most 1500 nM in experiment [1] and at most 10 µM in experiment [2].

On to `CCS(=O)(=O)N1CCC(c2c[nH]c3c(C(N)=O)cc(-c4cccc(CN5CCNCC5)c4)cc23)CC1` [Example 2, 3-[1-(ethylsulfonyl)-4-piperidinyl]-5-[3-(1-piperazinylmethyl)phenyl]-1H-indole-7-carboxamide], for which the figures for the IC50 in experiment [1] and in experiment [2] were at most 1500 nM and at most 10 µM, respectively.

With `CCS(=O)(=O)N1CCC(c2c[nH]c3c(C(N)=O)cc(-c4cccc(CN5CCOCC5)c4)cc23)CC1` [Example 3, 3-[1-(ethylsulfonyl)-4-piperidinyl]-5-[3-(4-morpholinylmethyl)phenyl]-1H-indole-7-carboxamide], the IC50 in experiment [1] is at most 1500 nM; in experiment [2] it was at most 10 µM.

For the compound `CCS(=O)(=O)N1CCC(c2c[nH]c3c(C(N)=O)cc(-c4cccc(CN(C)CCS(C)(=O)=O)c4)cc23)CC1` [Example 4, 3-[1-(ethylsulfonyl)-4-piperidinyl]-5-[3-({methyl[2-(methylsulfonyl)ethyl]amino}methyl)phenyl]-1H-indole-7-carboxamide], the IC50 in experiment [1] was above 1000 nM; in experiment [2] it was at most 10 µM.

Consider `CCS(=O)(=O)N1CCC(c2c[nH]c3c(C(N)=O)cc(-c4cccc(CN(C)CCN(C)C)c4)cc23)CC1` [Example 5, 5-(3-{[[2-(dimethylamino)ethyl](methyl)amino]methyl}phenyl)-3-[1-(ethylsulfonyl)-4-piperidinyl]-1H-indole-7-carboxamide], for which the IC50 in experiment [1] was at most 1500 nM; in experiment [2], at most 10 µM.

For `CCS(=O)(=O)N1CCC(c2c[nH]c3c(C(N)=O)cc(-c4cccc(CN5CCN(CCOCCO)CC5)c4)cc23)CC1` [Example 6, 3-[1-(ethylsulfonyl)-4-piperidinyl]-5-{3-[(4-{2-[(2-hydroxyethyl)oxy]ethyl}-1-Piperazinyl)methyl]phenyl}-1H-indole-7-carboxamide], the values for the IC50 in experiment [1] and in experiment [2] were at most 1500 nM and at most 10 µM, respectively.

In the case of `CCS(=O)(=O)N1CCC(c2c[nH]c3c(C(N)=O)cc(-c4cccc(CN5CCCC(CO)C5)c4)cc23)CC1` (stereo not drawn) [Example 7, 3-[1-(ethylsulfonyl)-4-piperidinyl]-5-(3-{[3-(hydroxymethyl)-1-piperidinyl]methyl}phenyl)-1H-indole-7-carboxamide], the results for the IC50 in experiment [1] and in experiment [2] were at most 1500 nM and at most 10 µM, respectively.

`CCS(=O)(=O)N1CCC(c2c[nH]c3c(C(N)=O)cc(-c4cccc(CN(CCOC)CCOC)c4)cc23)CC1` [Example 8, 5-[3-({bis[2-(methyloxy)ethyl]amino}methyl)phenyl]-3-[1-(ethylsulfonyl)-4-piperidinyl]-1H-indole-7-carboxamide]: the values for the IC50 in experiment [1] and in experiment [2] were at most 1500 nM and at most 10 µM, respectively.

Turning to `CCS(=O)(=O)N1CCC(c2c[nH]c3c(C(N)=O)cc(-c4cccc(CN5CC(C)OC(C)C5)c4)cc23)CC1` (stereo not drawn) [Example 9, 5-{3-[(2,6-dimethyl-4-morpholinyl)methyl]phenyl}-3-[1-(ethylsulfonyl)-4-piperidinyl]-1H-indole-7-carboxamide], the IC50 is at most 1500 nM in experiment [1] and at most 10 µM in experiment [2].

On to `CCS(=O)(=O)N1CCC(c2c[nH]c3c(C(N)=O)cc(-c4cccc(CN5CCCC5c5nccs5)c4)cc23)CC1` (stereo not drawn) [Example 10, 3-[1-(ethylsulfonyl)-4-piperidinyl]-5-(3-{[2-(1,3-thiazol-2-yl)-1-pyrrolidinyl]methyl}phenyl)-1H-indole-7-carboxamide], for which the IC50 in experiment [1] was at most 1500 nM; in experiment [2], at most 10 µM.

For `CCS(=O)(=O)N1CCC(c2c[nH]c3c(C(N)=O)cc(-c4cccc(CN5CCCC5c5cccs5)c4)cc23)CC1` (stereo not drawn) [Example 11, 3-[1-(ethylsulfonyl)-4-piperidinyl]-5-(3-{[2-(2-thienyl)-1-pyrrolidinyl]methyl}phenyl)-1H-indole-7-carboxamide], the IC50 in experiment [1] was at most 1500 nM; in experiment [2], at most 10 µM.

`CCS(=O)(=O)N1CCC(c2c[nH]c3c(C(N)=O)cc(-c4cccc(CN(C)CC(O)c5ccccc5)c4)cc23)CC1` (stereo not drawn) [Example 12, 3-[1-(ethylsulfonyl)-4-piperidinyl]-5-(3-{[(2-hydroxy-2-phenylethyl)-(methyl)amino]methyl}phenyl)-1H-indole-7-carboxamide]: the values for the IC50 in experiment [1] and in experiment [2] were at most 1500 nM and at most 10 µM, respectively.

For `CCN(C)Cc1cccc(-c2cc(C(N)=O)c3[nH]cc(C4CCN(S(=O)(=O)CC)CC4)c3c2)c1` [Example 13, 5-(3-{[ethyl(methyl)amino]methyl}phenyl)-3-[1-(ethylsulfonyl)-4-piperidinyl]-1H-indole-7-carboxamide], the IC50 in experiment [1] was at most 1500 nM; in experiment [2], at most 10 µM.

Turning to `CCS(=O)(=O)N1CCC(c2c[nH]c3c(C(N)=O)cc(-c4cccc(CNC5CCCC5)c4)cc23)CC1` [Example 15, 5-{3-[(cyclopentylamino)methyl]phenyl}-3-[1-(ethylsulfonyl)-4-piperidinyl]-1H-indole-7-carboxamide], the IC50 is above 1000 nM in experiment [1] and at most 10 µM in experiment [2].

For the compound `CCS(=O)(=O)N1CCC(c2c[nH]c3c(C(N)=O)cc(-c4cccc(CNCc5ccc(O)c(O)c5)c4)cc23)CC1` [Example 16, 5-[3-({[(3,4-dihydroxyphenyl)methyl]amino}methyl)phenyl]-3-[1-(ethylsulfonyl)-4-piperidinyl]-1H-indole-7-carboxamide], the IC50 in experiment [1] is at most 1500 nM; in experiment [2] it was at most 10 µM.

Regarding `CCS(=O)(=O)N1CCC(c2c[nH]c3c(C(N)=O)cc(-c4cccc(CNCc5ccsc5)c4)cc23)CC1` [Example 17, 3-[1-(ethylsulfonyl)-4-piperidinyl]-5-(3-{[(3-thienylmethyl)amino]methyl}phenyl)-1H-indole-7-carboxamide], the IC50 in experiment [1] was at most 1500 nM; in experiment [2], at most 10 µM.

As to `CCS(=O)(=O)N1CCC(c2c[nH]c3c(C(N)=O)cc(-c4cccc(CN[C@@H](CO)C(C)C)c4)cc23)CC1` [Example 18, 3-[1-(ethylsulfonyl)-4-piperidinyl]-5-[3-({[(1R)-1-(hydroxymethyl)-2-methylpropyl]amino}methyl)phenyl]-1H-indole-7-carboxamide], the IC50 in experiment [1] was at most 1500 nM; in experiment [2], at most 10 µM.

As to `CCS(=O)(=O)N1CCC(c2c[nH]c3c(C(N)=O)cc(-c4cccc(-n5cccn5)c4)cc23)CC1` [Example 164, 3-[1-(ethylsulfonyl)-4-piperidinyl]-5-[3-(1H-pyrazol-1-yl)phenyl]-1H-indole-7-carboxamide], the IC50 in experiment [1] is at most 1500 nM.

As to `CCS(=O)(=O)N1CCC(c2c[nH]c3c(C(N)=O)cc(-c4cncc(CNCC5CC5)c4)cc23)CC1` [Example 173, 5-(5-{[(cyclopropylmethyl)amino]methyl}-3-pyridinyl)-3-[1-(ethylsulfonyl)-4-piperidinyl]-1H-indole-7-carboxamide], the inhibition at 0.3 µM in experiment [1] fell in the range of 0 to 60%.

Turning to `CCCOCCCNCc1ccc(-c2cc(C(N)=O)c3[nH]cc(C4CCN(S(=O)(=O)CC)CC4)c3c2)s1` [Example 198, 3-[1-(ethylsulfonyl)-4-piperidinyl]-5-[5-({[3-(propyloxy)propyl]amino}methyl)-2-thienyl]-1H-indole-7-carboxamide], the inhibition at 0.3 µM in experiment [1] is 0 to 60%.

Turning to `CCS(=O)(=O)N1CCC(c2c[nH]c3c(C(N)=O)cc(-c4ccc(CNCC(C)C)s4)cc23)CC1` [Example 243, 3-[1-(ethylsulfonyl)-4-piperidinyl]-5-(5-{[(2-methylpropyl)amino]methyl}-2-thienyl)-1H-indole-7-carboxamide trifluoroacetate], the IC50 in experiment [1] was at most 1500 nM.

Compound `CCOCCN(C)Cc1cc(-c2cc(C(N)=O)c3[nH]cc(C4CCN(S(=O)(=O)CC)CC4)c3c2)cs1` [Example 403, 5-(5-{[[2-(ethyloxy)ethyl](methyl)amino]methyl}-3-thienyl)-3-[1-(ethylsulfonyl)-4-piperidinyl]-1H-indole-7-carboxamide] had an IC50 in experiment [1] of at most 1500 nM.
